From US4252795A, “N-substituted dimeric cyclopeptide derivatives and preparation thereof” (Ayerst McKenna and Harrison Inc., priority 1978, dated 1981)

Assays:
Serratia marcescens = assay: serial broth dilution, growth inhibition; type: cell-based; conditions: nutrient broth, incubated at 37° C. for 2 days, examined for presence of growth
Protocol: (§1) Grove and W. A. Randall in "Assay Methods of Antibiotics", Med. Encycl. Inc., [New York] 955. […] 289.
(§2) For example, by employing a test like the serial broth dilution, see Grove and Randall, cited above, in which dilutions of the compounds of this invention in nutrient broth are inoculated with the microorganisms or fungi, described above, incubated at 37° C. for 2 days, respectively, and examined for the presence of growth, it may be shown that the preferred compounds N'N'-dicyclohexyl-α,α'-diisopropyl-2,5,8,11,14,17-hexaoxo-1,4,7,10,13,16-hexaazacyclooctadecane-1,10-diacetamide, isomer L, (Example 1), N'N'-dicyclohexyl-α,α'-diisopropyl-2,5,8,11,14,17-hexaoxo-1,4,7,10,13,16-hexaazacyclooctadecane-1,10-diacetamide, isomer M, (Example 1), and α,α'-diphenyl-N'N'-dicyclohexyl-2,5,8,11,14,17-hexaoxo-1,4,7,10,13,16-hexaazacyclooctadecane-1,10-diacetamide, isomer L, (Example 1) are able to inhibit growth totally in this system of Klebsiella pneumoniae and Serratia marcescens at a concentration of 100 mcg/ml.

Klebsiella pneumoniae = assay: serial broth dilution, growth inhibition; type: cell-based; conditions: nutrient broth, incubated at 37° C. for 2 days, examined for presence of growth
Protocol: as §1, §2

Structure (SMILES)	concentration able to inhibit growth totally (Serratia marcescens)	concentration able to inhibit growth totally (Klebsiella pneumoniae)
O=C1CNC(=O)CN(C(C(=O)NC2CCCCC2)c2ccccc2)C(=O)CNC(=O)CNC(=O)CN(C(C(=O)NC2CCCCC2)c2ccccc2)C(=O)CN1 (stereo not drawn) [α,α'-diphenyl-N,N'-dicyclohexyl-2,5,8,11,14,17-hexaoxo-1,4,7,10,13,16-hexaazacyclooctadecane-1,10-diacetamide]	100 µg/mL	100 µg/mL
CC(C)C(C(=O)NC1CCCCC1)N1CC(=O)NCC(=O)NCC(=O)N(C(C(=O)NC2CCCCC2)C(C)C)CC(=O)NCC(=O)NCC1=O (stereo not drawn) [N,N'-Dicyclohexyl-α,α'-diisopropyl-2,5,8,11,14,17-hexaoxo-1,4,7,10,13,16-hexaazacyclooctadecane-1,10-diacetamide]	100 µg/mL	100 µg/mL
